This passage reports relative viability results from the supplement of paper PMC10307832.

Experiment in all cases: relative viability (nuclei count vs DMSO), 5 days (fraction); higher = more cells survive
Compound in one assay: CC(C)=CC[C@@H](O)C1=CC(=O)c2c(O)ccc(O)c2C1=O [Shikonin]
Summed up: (§1)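 Five library-drug doses spaced by √10 were pinned onto vehicle-anchored 1536-well plates of lung cancer cell lines that had been kept overnight at 37 °C. Cells went 5 days without medium change, then were fixed, permeabilised and Hoechst-stained together, imaged at 4× and counted by MetaXpress. Viability is the ratio of treated-well to vehicle-well nuclei, taken as a median over plates. Plates required control CV below 25% and at least one doubling.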

Compound in assay [1]: CC(C)N(CCCNC(=O)Nc1ccc(C(C)(C)C)cc1)C[C@H]1O[C@@H](n2ccc3c(N)ncnc32)[C@H](O)[C@@H]1O
The procedure, abridged: as §1

Compound in the assay “Shikonin + Alpelisib”: CC(C)=CC[C@@H](O)C1=CC(=O)c2c(O)ccc(O)c2C1=O [Shikonin] + Cc1nc(NC(=O)N2CCC[C@H]2C(N)=O)sc1-c1ccnc(C(C)(C)C(F)(F)F)c1 [Alpelisib] (partner 2 µM)
Summed up:
(§2)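 Relative viability is defined as nuclei in treated wells over nuclei in vehicle wells. Duplicate plates were run and medians reported. Lung cancer cell lines in 1536-well plates were dosed by pin tool one day after seeding, with one drug or with a fixed anchor-drug dose plus five library-drug doses (not always all listed) in √10 steps, and nuclei were counted after 5 days.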

Compound in assay [2]: CC(C)N(CCCNC(=O)Nc1ccc(C(C)(C)C)cc1)C[C@H]1O[C@@H](n2ccc3c(N)ncnc32)[C@H](O)[C@@H]1O + Nc1nc2[nH]cc(CCc3ccc(C(=O)N[C@@H](CCC(=O)O)C(=O)O)cc3)c2c(=O)[nH]1 [Pemetrexed] (partner 0.2 µM)
The procedure, abridged: as §2

Turning to HCC-366, the relative viability with Shikonin (0.01 µM) worked out at 0.975; in the assay with Shikonin (0.1 µM), 1.15; in the assay with Shikonin (0.3162 µM) it was 1.04; with Shikonin (1 µM), 1.03; in assay [1] (0.08 µM), 0.965; in assay [1] (0.253 µM), 0.988. The relative viability in assay [1] (0.8 µM) was determined as 0.927; in assay [1] (2.53 µM), 0.984; in assay [1] (8 µM), 0.892; in the assay with Shikonin + Alpelisib (first compound 0.01 µM), 0.329; with Shikonin + Alpelisib (first compound 0.1 µM), 0.347; with Shikonin + Alpelisib (first compound 0.3162 µM) it was 0.423. The relative viability was 0.379 with Shikonin + Alpelisib (first compound 1 µM); 0.14 in assay [2] (first compound 0.08 µM); 0.266 in assay [2] (first compound 0.253 µM); 0.129 in assay [2] (first compound 0.8 µM); 0.18 in assay [2] (first compound 2.53 µM); 0.166 in assay [2] (first compound 8 µM).
Consider HCC-827, for which the relative viability was determined as 1.04 with Shikonin (0.01 µM); 1.04 with Shikonin (0.1 µM); 1.04 in the assay with Shikonin (0.3162 µM); 1.06 with Shikonin (1 µM); 1.03 in assay [1] (0.08 µM); 1.06 in assay [1] (0.253 µM). Further, the relative viability is 0.584 in assay [1] (0.8 µM); 1.01 in assay [1] (2.53 µM); 0.961 in assay [1] (8 µM); 0.996 with Shikonin + Alpelisib (first compound 0.01 µM); 1.11 in the assay with Shikonin + Alpelisib (first compound 0.1 µM); 0.994 with Shikonin + Alpelisib (first compound 0.3162 µM). Besides, the relative viability amounted to 0.812 with Shikonin + Alpelisib (first compound 1 µM); 0.257 in assay [2] (first compound 0.08 µM); 0.284 in assay [2] (first compound 0.253 µM); 0.279 in assay [2] (first compound 0.8 µM); 0.267 in assay [2] (first compound 2.53 µM); 0.269 in assay [2] (first compound 8 µM).
Take HOP-62: the relative viability came to 1.15 in the assay with Shikonin (0.01 µM); 1.11 with Shikonin (0.1 µM); 1.23 in the assay with Shikonin (0.3162 µM); 1.02 with Shikonin (1 µM); 1.04 in assay [1] (0.08 µM); 1.06 in assay [1] (0.253 µM). For the same cell line, the relative viability was found to be 0.856 in assay [1] (0.8 µM); 0.939 in assay [1] (2.53 µM); 0.879 in assay [1] (8 µM); 1.11 with Shikonin + Alpelisib (first compound 0.01 µM); 1.37 in the assay with Shikonin + Alpelisib (first compound 0.1 µM); 1.2 with Shikonin + Alpelisib (first compound 0.3162 µM). Further, the relative viability with Shikonin + Alpelisib (first compound 1 µM) stood at 0.707; in assay [2] (first compound 0.08 µM), 0.323; in assay [2] (first compound 0.253 µM) it was 0.433; in assay [2] (first compound 0.8 µM), 0.39; in assay [2] (first compound 2.53 µM), 0.31; in assay [2] (first compound 8 µM), 0.356.
With LC-2-ad, the relative viability in the assay with Shikonin (0.01 µM) was 0.965; with Shikonin (0.1 µM), 1.05; in the assay with Shikonin (0.3162 µM) it was 1.01; with Shikonin (1 µM), 1.01; in assay [1] (0.08 µM) it was 0.978; in assay [1] (0.253 µM), 1.03. Besides, the relative viability in assay [1] (0.8 µM) turned out to be 0.731; in assay [1] (2.53 µM), 0.944; in assay [1] (8 µM), 0.882; with Shikonin + Alpelisib (first compound 0.01 µM) it was 0.921; in the assay with Shikonin + Alpelisib (first compound 0.1 µM) it was 0.944; with Shikonin + Alpelisib (first compound 0.3162 µM) it was 0.925. Also, the relative viability in the assay with Shikonin + Alpelisib (first compound 1 µM) came out at 0.912; in assay [2] (first compound 0.08 µM) it was 0.282; in assay [2] (first compound 0.253 µM), 0.271; in assay [2] (first compound 0.8 µM) it was 0.263; in assay [2] (first compound 2.53 µM), 0.282; in assay [2] (first compound 8 µM), 0.276.
Regarding LCLC-97TM1, the relative viability in the assay with Shikonin (0.01 µM) turned out to be 0.991; with Shikonin (0.1 µM), 1.02; in the assay with Shikonin (0.3162 µM), 1.08; with Shikonin (1 µM), 0.968; in assay [1] (0.08 µM), 1.05; in assay [1] (0.253 µM), 1. Moreover, the relative viability is 1.07 in assay [1] (0.8 µM); 0.903 in assay [1] (2.53 µM); 0.989 in assay [1] (8 µM); 0.246 with Shikonin + Alpelisib (first compound 0.01 µM); 0.238 in the assay with Shikonin + Alpelisib (first compound 0.1 µM); 0.25 in the assay with Shikonin + Alpelisib (first compound 0.3162 µM). Besides, the relative viability with Shikonin + Alpelisib (first compound 1 µM) worked out at 0.292; in assay [2] (first compound 0.08 µM) it was 0.179; in assay [2] (first compound 0.253 µM), 0.175; in assay [2] (first compound 0.8 µM), 0.18; in assay [2] (first compound 2.53 µM), 0.163; in assay [2] (first compound 8 µM), 0.183.
Take LCLC-103H: the relative viability with Shikonin (0.01 µM) was found to be 0.946; with Shikonin (0.1 µM) it was 1.2; in the assay with Shikonin (0.3162 µM), 1.05; in the assay with Shikonin (1 µM) it was 1.08; in assay [1] (0.08 µM), 0.946; in assay [1] (0.253 µM), 0.966. In addition, the relative viability came to 0.857 in assay [1] (0.8 µM); 0.839 in assay [1] (2.53 µM); 1.01 in assay [1] (8 µM); 0.984 with Shikonin + Alpelisib (first compound 0.01 µM); 0.994 in the assay with Shikonin + Alpelisib (first compound 0.1 µM); 0.896 with Shikonin + Alpelisib (first compound 0.3162 µM). Besides, the relative viability with Shikonin + Alpelisib (first compound 1 µM) worked out at 0.978; in assay [2] (first compound 0.08 µM), 0.417; in assay [2] (first compound 0.253 µM), 0.454; in assay [2] (first compound 0.8 µM), 0.452; in assay [2] (first compound 2.53 µM), 0.413; in assay [2] (first compound 8 µM) it was 0.51.
On to LK-2, for which the relative viability came to 1.1 in the assay with Shikonin (0.01 µM); 0.955 with Shikonin (0.1 µM); 0.998 with Shikonin (0.3162 µM); 1.03 in the assay with Shikonin (1 µM); 0.886 in assay [1] (0.08 µM); 0.792 in assay [1] (0.253 µM). In addition, the relative viability turned out to be 1.04 in assay [1] (0.8 µM); 0.966 in assay [1] (2.53 µM); 0.974 in assay [1] (8 µM); 1.04 with Shikonin + Alpelisib (first compound 0.01 µM); 1.54 with Shikonin + Alpelisib (first compound 0.1 µM); 1.11 with Shikonin + Alpelisib (first compound 0.3162 µM). In addition, the relative viability is 1.04 with Shikonin + Alpelisib (first compound 1 µM); 0.252 in assay [2] (first compound 0.253 µM); 0.336 in assay [2] (first compound 0.8 µM); 0.293 in assay [2] (first compound 2.53 µM); 0.279 in assay [2] (first compound 8 µM).
With LOU-NH91, the relative viability was 0.984 with Shikonin (0.01 µM); 1.04 with Shikonin (0.1 µM); 1.04 with Shikonin (0.3162 µM); 1.02 with Shikonin (1 µM); 0.981 in assay [1] (0.08 µM); 0.908 in assay [1] (0.253 µM). Moreover, the relative viability worked out at 0.979 in assay [1] (2.53 µM); 1 in assay [1] (8 µM); 0.703 with Shikonin + Alpelisib (first compound 0.01 µM); 0.73 in the assay with Shikonin + Alpelisib (first compound 0.1 µM); 0.839 with Shikonin + Alpelisib (first compound 0.3162 µM); 0.727 with Shikonin + Alpelisib (first compound 1 µM). Moreover, the relative viability was determined as 0.359 in assay [2] (first compound 0.08 µM), 0.373 in assay [2] (first compound 0.253 µM), 0.439 in assay [2] (first compound 2.53 µM) and 0.427 in assay [2] (first compound 8 µM).
